Laboratory results published in US12116614B2, “Methods for determining antibiotic sensitivity” (priority 2020, dated 2024).
“Also recorded” adds a separate entry of the source.

Assays:
[1] = system: NTHI (biofilm-resident, planktonic, anti-rsPilA NRel, anti-IHF NRel); experiment: Antibiotic sensitivity of biofilm-resident, planktonic or NRel NTHI (2 h antibiotic exposure, CFU plating); assay type: cell-based, Nontypeable Haemophilus influenzae
Procedure: Biofilms were established for 16 hr at 37° C. as described above. For biofilm-resident NTHI: biofilms were washed twice with DPBS and incubated in sBHI supplemented with the indicated antibiotics for at 37° C. 2 h. For planktonic NTHI: NTHI were incubated in sBHI for 3 hr as described above to reach log phase of growth, then diluted to the approximate concentration of either the anti-IHF (2×10^8 CFU/ml) or anti-rsPilA NRels (3×10^8 CFU/ml) to permit comparison between anti-IHF or anti-rsPilA NRels, (see FIG. 1). Planktonic NTHI were incubated with the indicated antibiotics at 37° C. for 2 hr. For NRel NTHI: anti-IHF or anti-rsPilA NRel, generated and collected as described above were incubated at 37° C. for 2 hr with the indicated antibiotics. CFU NTHI were determined by serial dilution and plating. Amoxicillin (Sigma-Aldrich, St. Louis, MO) and clavulanate (U.S. Pharmacopeia, Rockville, MD) were used at a ratio of 2:1. Trimethoprim (Sigma-Aldrich) and sulfamethoxazole (Santa Cruz Biotech, Dallas, TX) were used at a ratio of 1:5. […] All experiments were performed at least three times on separate days with two technical replicates for each treatment and control group.
To avoid excessive manipulation or dilution of NRel NTHI, and to permit direct comparison of equal numbers of planktonic and NRel, the planktonic cell density was adjusted to the same CFU per ml as the NRel population in each experiment as follows: NTHI were incubated statically to mid log phase growth then diluted to either 3×10^8 CFU/ml for comparison with anti-rsPilA NRel collected at 6 h, or to 2×10^8 CFU/ml for comparison with anti-IHF NRel collected at 15 min (see FIG. 1). Applicant then determined the concentrations of amoxicillin (Sigma-Aldrich, St. Louis, MO) and clavulanate (U.S. Pharmacopeia, Rockville, MD), or of trimethoprim (Sigma-Aldrich) and sulfamethoxazole (Santa Cruz Biotech, Dallas, TX) that killed approximately 25% of planktonic NTHI at each density. The same antibiotic concentrations were used for the anti-IHF or anti-rsPilA NRel, the density-matched (same CFU/ml) planktonic NTHI, and the adherent biofilm for each relevant experiment. […] Applicant then assessed killing of anti-IHF or anti-rsPilA NRel by concentrations of amoxicillin plus clavulanic acid (“augmentin”, AMC) or trimethoprim plus sulfamethoxazole (TMP-SMX) that killed 25% of the planktonic NTHI at the same density.
Anti-rsPilA or anti-IHF NRel were collected and sonicated as described above. After sonication for 2 min in a water bath sonicator to break up any NTHI aggregates, NRel or planktonic NTHI were incubated with the indicated antibiotics at 37° C. for 2 h, then serially diluted and plated on chocolate agar to quantify viable NTHI. To assay biofilm-resident NTHI, biofilms were established for 16 h at 37° C. as described above, washed twice with DPBS and incubated in sBHI supplemented with the indicated antibiotics at 37° C. After 2 h, biofilm-resident NTHI were collected by forceful pipetting, sonicated for 2 min and enumerated as described above. All experiments were performed at least three times on separate days with two or three technical replicates for each treatment and control group.

[2] = system: NRel versus Non-Associated NTHI
Text: Applicant tested for this phenotype for either Amox/Clav or Trimethoprim/Sulfamethoxazole to determine when this sensitivity first appears and how long this NRel phenotype lasts (i.e. what is the window of opportunity in which to treat a patient with a biofilm disease?). Here, NRel are compared not to planktonic bacteria (due to their artificiality) but rather to “Non-Associated” bacteria which are those found in the supernatant above the biofilm but not associated with biofilm residence as this population represents those bacteria that naturally come off the biofilm or were never a part of the biofilm which is a normal aspect of the preferred bacterial lifestyle in nature. […] Box Legend: NRelAC—relative killing by Amox/Clav; NRel TS—relative killing by Trimethoprim/Sulfamethoxazole; open symbols are the same but for the non-associated populations of bacteria as now described in this legend. Data was generated with a murine anti-tip chimer antibody.
Box Legend: NRelAC—relative killing by Amox/Clav; NRel TS—relative killing by Trimethoprim/Sulfamethoxazole; open symbols are the same but for the non-associated populations of bacteria as now described in this legend. Data was generated with a murine anti-tip chimer antibody.

[3] = system: P. aeruginosa isolate JG1; experiment: Killing of planktonic and anti-DNABII NRel of clinical isolate at 1/4 MIC; assay type: cell-based
Procedure: (§1) Here both the planktonic and anti-DNABII NRel of JG1 were incubated with ¼ of the indicated MIC of tobramycin.

[4] = system: planktonic P. aeruginosa isolate JG1; experiment: MIC for planktonic clinical isolate; assay type: cell-based; conditions: planktonic P. aeruginosa isolate JG1 from CF sputum
Procedure: as §1
MIC refers to minimal inhibitory concentration of an active agent such as a drug that is the lowest concentration that will inhibit the visible growth of a microorganism after overnight incubation and minimal bactericidal concentrations as the lowest concentration of an antimicrobial that will prevent the growth of an organism after subculture on antibiotic free media. Methods to determine these values are well known in the art and describe in Andrews, J. (2002) Antimicrob Chemother June; 49(6):1049.

A. baumanii [5] = experiment: Relative percent killing of planktonic versus anti-DNABII NRel by top-line antibiotics; assay type: cell-based; conditions: 16-hour biofilms, HuTipMab 30 minutes, antibiotic 2 hours
Procedure: FIGS. 11A and 11B show relative percent killing of planktonic versus anti-DNABII NRel of five diverse species of human pathogens by each of the three current top-line antibiotics used to treat individuals with disease due to the indicated pathogen. Using the methods described herein, planktonic bacteria were recovered mid-log phase. NRel were induced by incubation of 16-hour biofilms with HuTipMab for 30 minutes. Planktonic and NRel populations were then incubated with each of three top-line antibiotics for 2 hours to determine relative percent killing. […] See boxed data in FIG. 11B for NTHI and S. aureus.

P. aeruginosa = experiment: Time and dose-dependent release into NRel state from established biofilms by HuTipMab; assay type: cell-based; conditions: P. aeruginosa biofilm; versus HuIgG negative control
Procedure: (§2) FIGS. 8A to 8F show the time and dose-dependence of release of six diverse species of human pathogens into the NRel state by anti-DNABII which occurs when established biofilms are incubated with a humanized monoclonal antibody raised against a chimeric peptide identified as IhfA5-mIhfB4 tip chimer (The humanized antibody utilized in this example (identified in the Figure and herein as “HuTipMab”) comprises heavy chain 1 (HCl) and light chain 2 (LC2) as disclosed herein) but not when similarly incubated with the negative control (“HulgG” a commercially available naïve human serum of the isotype IgG).

S. aureus = experiment: as above; assay type: cell-based; conditions: S. aureus biofilm; versus HuIgG negative control
Procedure: as §2

B. cenocepacia = experiment: as above; assay type: cell-based; conditions: B. cenocepacia biofilm; versus HuIgG negative control
Procedure: as §2

S. pneumoniae = experiment: as above; assay type: cell-based; conditions: S. pneumoniae biofilm; versus HuIgG negative control
Procedure: as §2

A. baumanii [6] = experiment: as above; assay type: cell-based; conditions: A. baumanii biofilm; versus HuIgG negative control
Procedure: as §2

[7] = system: nontypeable H. influenzae (NTHI); experiment: as above; assay type: cell-based; conditions: NTHI biofilm; versus HuIgG negative control
Procedure: as §2

[8] = after exposure to anti-DNABII antibody

amoxicillin and clavulanic acid [A/C]
sensitivity of biofilm-resident NTHI to killing ([1]; 16 h biofilm, 2 h antibiotic): minimal sensitivity | sensitivity to killing of anti-IHF NRel compared to biofilm-resident NTHI ([1]; NRel after 15 min anti-IHF, 2 h antibiotic): significantly more sensitive | sensitivity to killing of anti-IHF NRel compared to planktonic NTHI ([1]; NRel after 15 min anti-IHF, 2 h antibiotic at concentration killing ~20-25% of planktonic NTHI): significantly more sensitive | sensitivity to killing of anti-rsPilA NRel compared to biofilm-resident NTHI ([1]; NRel after 6 h anti-rsPilA, 2 h antibiotic): significantly more sensitive | sensitivity to killing of anti-rsPilA NRel compared to planktonic NTHI ([1]; NRel after 6 h anti-rsPilA, 2 h antibiotic at concentration killing ~20-25% of planktonic NTHI): only equally as sensitive; also recorded: only as equally as sensitive | sensitivity to killing of anti-rsPilA NRel compared to planktonic NTHI ([1]; NRel after 6 h anti-rsPilA, 2 h antibiotic at concentration killing ~20-25% of planktonic NTHI, listed as AMC): only equally as sensitive | sensitivity to killing of time-matched anti-rsPilA NRel compared to planktonic NTHI ([1]; NRel collected after 2 h, TMP-SMX 0.09 and 0.45 μg per ml, AMC 0.3 and 0.15 μg per ml, listed as AMC): only equally as sensitive; also recorded: equally susceptible | sensitivity to killing of time-matched anti-IHF NRel compared to planktonic NTHI ([1]; NRel collected after 2 h, TMP-SMX 0.94 and 4.7 μg/ml, AMC 2.5 and 1.25 μg/ml, listed as AMC): significantly more sensitive; also recorded: significantly more susceptible | sensitivity of anti-DNABII NRel to killing compared to Non-Associated bacteria ([2]; NRel induced with murine anti-tip chimer antibody): significantly greater sensitivity | time at which sensitivity of anti-DNABII NRel reaches a maximum [2, 8]: ≤ 2 h | time at which significantly greater sensitivity of anti-DNABII NRel occurs [2, 8]: ≤ 5 min | time until which greater sensitivity of anti-DNABII NRel lasts [2, 8]: ~3 h | time by which greater sensitivity of anti-DNABII NRel wanes ([2]; post exposure to anti-DNABII antibody): ≤ 6 h

NC[C@H]1O[C@H](O[C@H]2[C@H](O)[C@@H](O[C@H]3O[C@H](CO)[C@@H](O)[C@H](N)[C@H]3O)[C@H](N)C[C@@H]2N)[C@H](N)C[C@@H]1O [tobramycin]
killing of anti-DNABII NRel of JG1 compared to planktonic ([3]; 1/4 MIC tobramycin, n=3, p≤0.01): significantly more sensitive to killing | planktonic JG1 killed ([3]; 1/4 of the MIC of tobramycin): ~25% | MIC [4]: 4086 μg tobramycin/ml | relative killing of anti-DNABII NRel versus planktonic (A. baumanii [5]): not killed significantly greater

B1: HuTipMab (antibody)
heavy: EVQLVESGGGLVQPGGSLRLSCAASGFTFRTYAMSWVRQAPGKGLEWVATIGSDRRHTYYPDSVKGRFTISRDNSKNTLYLQMNSLRAEDTAVYYCVGPYDGYYGEFDYWGQGTLVTVSSASTKGPSVFPLAPSSKSTSGGTAALGCLVKDYFPEPVTVSWNSGALTSGVHTFPAVLQSSGLYSLSSVVTVPSSSLGTQTYICNVNHKPSNTKVDKKVEPKSCDKTHTCPPCPAPELLGGPSVFLFPPKPKDTLMISRTPEVTCVVVDVSHEDPEVKFNWYVDGVEVHNAKTKPREEQYNSTYRVVSVLTVLHQDWLNGKEYCKVSNKALPAPIEKTISKAKGQPREPQVYTLPPSREEMTKNQVSLTCLVKGFYPSDIAVEWESNGQPENNYKTTPPVLDSDGSFFLYSKLTVDKSRWQQGNVFSCSVMHEALHNHYTQKSLSLSPG
light: DVVMTQSPLSLPVTLGQPASISCRSSQSLLDSDGKTFLNWLQQRPGQSPRRLIYLVSKRDSGVPDRFSGSGSGTDFTLKISRVEAEDVGVYYCWQGTHFPYTFGQGTKLEIKRTVAAPSVFIFPPSDEQLKSGTASVVCLLNNFYPREAKVQWKVDNALQSGNSQESVTEQDSKDSTYSLSSTLTLSKADYEKHKVYACEVTHQGLSSPVTKSFNRGEC
release into the NRel state over time (P. aeruginosa): gradual, more linear increase over time | release into the NRel state over time (S. aureus): jump in the number of NRel at 30 mins regardless of dose | release into the NRel state over time (B. cenocepacia): jump in the number of NRel at 30 mins regardless of dose | release into the NRel state over time (S. pneumoniae): gradual, more linear increase over time | release into the NRel state over time (A. baumanii [6]): jump in the number of NRel at 30 mins regardless of dose | release into the NRel state over time [7]: jump in the number of NRel at 30 mins regardless of dose
